These results are taken from US20100136538A1, “MARKING REAGENTS BEARING DIAZO AND NITRO FUNCTIONS, METHODS FOR THE SYNTHESIS OF SUCH REAGENTS AND METHODS FOR DETECTING BIOLOGICAL MOLECULES” (Biomerieux, priority 2007, published 2010).

Series [1] can be described thus: Accelerated stability in liquid medium (125 mM in 96/4 DMSO/methanol, ambient temperature), HPLC purity. It counts as physicochemical. The following applies: 22° C., at 10 days. How it is done: For this purpose, an accelerated stability study is carried out under extreme conditions, in which the compounds are stored at 125 mM in a 96/4 DMSO/methanol mixture at ambient temperature (22° C.+/−1° C.). Note that these are extreme storage conditions.
The three compounds meta nitro DKB, para nitro DKB, and BBP, which are clearly shown in FIG. 10, are dissolved at 125 mM in a 96/4 DMSO/methanol mixture and are stored at ambient temperature (22° C. plus or minus 1° C.). At regular intervals subsequently, 2 μl of these solutions are injected in HPLC (basic method, Waters HPLC system) in order to measure the degradation of the principal product by integrating all of the peaks in the chromatogram (PDA Max Plot in the Empower 2 software).

The format of series [2] is physicochemical. The procedure: The three compounds meta nitro DKB, para nitro DKB, and BBP are dissolved at 250 mM in a Tris HCl 10 mM, pH 7.5, and 10% Trehalose solution. The solutions are lyophilized overnight in aliquots of 50 nmol. The dry products are then stored at 4° C. At regular intervals these aliquots are dissolved in methanol and 15 μl of these solutions are injected in HPLC (Waters) in order to measure the degradation of the principal product by integration of all of the peaks in the chromatogram (PDA Max Plot in the Empower software).

[Bio-EG3]2-PDAM [BBP]: in series [1], the “purity of the initial compound (HPLC)” value is recorded as < 10%. For the same substance, the “stability in dry form” value in series [2] was “does not withstand lyophilization”. The breakdown during lyophilization in series [2] (Tris HCl 10 mM pH 7.5, 10% Trehalose, lyophilized overnight) is reported as > 60%.
